In patent US20090214464A1, “COMPOUNDS FOR FLAVIVIRIDAE TREATMENT” (priority 2004, published 2009):

Key:
[1] = molecular target: human recombinant cyclophilin (Homo sapiens, UniProt P62937); assay: competitive ELISA test of cyclophilin binding (Binding Ratio); conditions: relative to cyclosporin A in a simultaneous test
Description: A cyclosporin is considered as binding to cyclophilin if it binds to human recombinant cyclophilin at least one fifth as well as does cyclosporin A in the competitive ELISA test described by Quesniaux in Eur. J. Immunol. […] The results are expressed as the Binding Ratio (BR), which is the log to the base 10 of the ratio of the IC50 of the test compound and the IC50 in a simultaneous test of cyclosporin A itself.

[2] = tested on: Balb/c mice spleen cells stimulated with irradiated CBA spleen cells; assay: Mixed Lymphocyte Reaction (MLR); assay type: cell-based
Description: Cyclosporins which bind strongly to cyclophilin but are not immunosuppressive have been identified. A cyclosporin is considered to be non-immunosuppressive when it has an activity in the Mixed Lymphocyte Reaction (MLR) of no more than 5%, preferably no more than 2%, that of cyclosporin A. The Mixed Lymphocyte Reaction is described by T. Meo in “Immunological Methods”, L. Lefkovits and B. Peris, Eds., Academic Press, N.Y. pp. 227-239 (1979). Spleen cells (0.5×10^6) from Balb/c mice (female, 8-10 weeks) are co-incubated for 5 days with 0.5×10^6 irradiated (2000 rads) or mitomycin C treated spleen cells from CBA mice (female, 8-10 weeks). The irradiated allogeneic cells induce a proliferative response in the Balb c spleen cells which can be measured by labeled precursor incorporation into the DNA. […] The IC50 found for the test compound in the MLR is compared with that found for cyclosporin A in a parallel experiment. In addition, non-immunosuppressive cyclosporins lack the capacity of inhibiting CN and the downstream NF-AT pathway.
IR=immunosuppressive Ratio, expressed as a percentage of the activity relative to Cyclosporin A.

[3] = tested on: HCV subgenomic replicon in MH-14 cells; assay: immunoblot analysis of HCV NS5A and NS5B proteins in MH-14 HCV replicon cells; assay type: cell-based; conditions: 7 days
Experimental: (§1) Cell culture: Huh-7 and MH-14 cells, HCV replicon cells, are cultured in Dulbecco's modified Eagle's medium (DMEM) with 10% fetal bovine serum (FBS). PH5CH8 cells are cultured in a 1:1 mixture of DMEM and F12 medium supplemented with 100 ng/ml of epidermal growth factor, 10 μ/ml of insulin, 0.36 μg/ml of hydrocortisone, 5 μg/ml of transferrin, 5 μg/ml of linoleic acid, 20 ng/ml of selenium, 4 μg/ml of glucagon, 10 ng/ml of prolactin, 10 μg/ml of gentamicin, 200 μg/ml of kanamycin, and 2% FBS.
Immunoblot analysis: Immunoblot analysis is performed as described by K. Watashi et al., Virology 2001, 286, 391-402. The primary antibodies used in this experiment are anti-NS5A, anti-NS5B, and anti-β-actin (Sigma) antibodies.
The effect of various cyclosporins of the invention on the replication of the HCV genome using MH-14 cells, in which the HCV subgenomic replicon as shown in FIG. 1A is autonomously replicated.

[4] = tested on: HCV in PH5CH8 cells (non-neoplastic hepatocyte cell line); assay: in vitro HCV infection experiment in PH5CH8 cells; assay type: cell-based; conditions: PH5CH8 cells treated continuously; untreated cells increase about 10-fold
Experimental: as §1
(§2) Real time RT-PCR analysis: The 5′-UTR of HCV genome RNA is quantified using the ABI PRISM 7700 sequence detector (AppliedBiosystems) as described by T. Takeuchi et al., Gastroenterology, 1999, 116, 636-642. The forward and reverse primers used in this experiment are 5′-[…]-3′ and 5′-[…]-3′, respectively. The fluorogenic probe is 5′-[…]-3′. As an internal control, ribosomal RNA is also quantified using TaqMan Ribosomal RNA Control Reagents (Applied Biosystems).

HCV = conditions: ribavirin alone; cited from earlier work
[5] = tested on: HCV subgenomic replicon in MH-14 cells; assay: northern blot analysis of replicon RNA in MH-14 cells; assay type: cell-based; conditions: 1 μg/ml, 7 days
Experimental: as §1
Northern blot analysis: Northern blot analysis is performed as described by H. Kishine et al., Biochem. Biophys. Res. Commun., 2002, 47, 119-125. The probe complementary to the NS5B sequence used in this experiment is described by H. Kishine, supra.
(§3) Replicon RNA is analyzed in MH-14 cells treated with or without a cyclosporin of the invention or IFNα for 7 days by northern blot analysis.

[6] = tested on: HCV subgenomic replicon in MH-14 cells; conditions: 7th day
Experimental: as §2, §3

Chain of human recombinant cyclophilin (P62937 whole entry): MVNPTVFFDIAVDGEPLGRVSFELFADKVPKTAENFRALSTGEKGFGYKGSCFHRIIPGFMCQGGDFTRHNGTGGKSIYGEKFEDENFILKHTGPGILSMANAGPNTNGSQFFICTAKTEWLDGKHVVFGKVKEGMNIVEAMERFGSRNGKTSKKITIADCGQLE

Row | Compound | BR (Binding Ratio: log to the base 10 of the ratio of the IC50 of the test compound and the IC50 of cyclosporin A) [1] | IR (immunosuppressive Ratio, percentage of the activity relative to Cyclosporin A) [2] | also measured
1 | [MeVa]^4-Ciclosporin | 0.1 | – | –
2 | [γ-hydroxy-MeLeu]^9-Ciclosporin | 0.15 | 2.9% | –
3 | [Ethyl-Ile]^4-Ciclosporin | 0.1 | – | –
4 | [Ethyl-Val]^4-Ciclosporin | 0 | – | –
5 | [MeVal]^5-Ciclosporin | 0.4 | 5.3% | –
6 | IFNα | – | – | amount of HCV NS5A and NS5B proteins by immunoblot analysis ([3]; 100 U/ml, positive control): undetectable; increase of HCV RNA genome titer, 5th day versus 1st day post-inoculation [4]: not observed
7 | NC(=O)c1ncn([C@@H]2O[C@H](CO)[C@@H](O)[C@H]2O)n1 [Ribavirin, 1-β-D-ribofuranosyl-1-1,2,4-triazole-3-caroxamide] | – | – | patients with serum amino transferase levels reduced to normal (HCV): 40 % of patients; serum levels of HCV-RNA (HCV): does not lower
8 | [Melle]^4-Ciclosporin | −0.2 | – | amount of HCV NS5A and NS5B proteins by immunoblot analysis ([3]; 1 μg/ml): undetectable; amount of replicon RNA by northern blot [5]: undetectable level; level of HCV RNA relative to the original [6]: about 1/400; increase of HCV RNA genome titer, 5th day versus 1st day post-inoculation [4]: not observed
9 | [8′-hydroxy-MeBmt]^1-Ciclosporin | 0.35 | 1.8% | –
10 | [MeAla]^6-Ciclosporin | −0.4 | 3.2% | –
